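Where inhibition never reached the appropriate level, the endpoint shown equals the highest concentration tested. Otherwise, values were interpolated linearly from a five-concentration, 48-hour dose response in 96-well plates. GI50: concentration for 50% inhibition of growth. TGI: total growth inhibition.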
Columns and labels:
Assay in all cases: NCI-60 cell line screen, 48 h
[1] = test system: MDA-MB-435
[2] = test system: BT-549 breast
[3] = test system: T-47D breast
[4] = test system: 786-0 renal
[5] = test system: MDA-MB-231 breast
[6] = test system: M19-MEL melanoma
[7] = test system: LXFL 529 NSCLC
[8] = test system: RXF-631 renal
[9] = test system: DMS 273 small cell lung
[10] = test system: KM20L2 colon
[11] = test system: XF 498 CNS
[12] = test system: MCF7 breast
[13] = test system: DLD-1 colon
[14] = test system: HOP-18 NSCLC
[15] = test system: HS 578T breast

SMILES | TGI [1] [µM] | TGI [2] [µM] | TGI [3] [µM] | TGI [4] [µM] | TGI [5] [µM] | TGI [6] [µM] | TGI [7] [µM] | TGI [8] [µM] | TGI [9] [µM] | TGI [10] [µM] | TGI [11] [µM] | TGI [12] [µM] | TGI [13] [µM] | TGI [14] [µM] | TGI [15] [µM] | other results
NCc1ccc(C(=O)O)cc1 | > 100 | > 100 | > 100 | > 100 | > 100 | – | – | – | – | – | – | – | – | – | – | –
CCO/N=[N+](\[O-])N(CC)CC | – | – | – | – | – | > 100 | > 100 | > 100 | > 100 | > 100 | > 100 | – | – | – | – | –
COc1cc(C2c3cc4c(cc3[C@@H](Nc3cccc(C(C)=O)c3)C3COC(=O)[C@H]23)OCO4)cc(OC)c1O (stereo not given in full) | – | – | – | – | – | > 57.7 | – | – | 1.81 | > 23.3 | 14.9 | 28.2 | 4.93 | 54.3 | – | –
CC[n+]1c(/C=C/c2ccc(N(CCCl)CCCl)cc2)ccc2cc(NC(=O)/C=C/c3ccccc3)ccc21 | 1.07 | 1.58 | 1.5 | 3.22 | 1.09 | – | – | – | – | – | – | 1.24 | – | 13 | 1.25 | –
ClCc1c(Cl)c(Cl)c(Cl)c(CCl)c1Cl | 5.68 | – | 3.87 | – | 3.29 | – | – | – | – | – | – | 3.7 | – | – | 5.61 | GI50 [1]: 2.16 µM; GI50 [15]: 2.15 µM; GI50 [12]: 1.73 µM; GI50 [3]: 1.99 µM; GI50 [5]: 1.81 µM
CN(C)c1ccc(N=Nc2ccccn2)cc1 | > 100 | > 100 | > 100 | > 100 | > 100 | – | – | – | – | – | – | 14.6 | – | – | > 100 | –
Brc1ccccc1-c1ncc(-c2ccccc2)o1 | 60.4 | > 100 | > 100 | – | > 100 | – | – | – | – | – | – | > 100 | – | – | 41 | –
COc1ccc(-c2cc(N3CCN(c4ccccc4)CC3)c(C#N)c(=O)o2)cc1 | – | – | – | – | – | – | > 100 | > 100 | > 100 | > 100 | 19.8 | – | > 100 | 62.2 | – | –
COc1ccc(NC(=O)/C(CC2=Nc3ccc([N+](=O)[O-])cc3NC2O)=N\NC(=O)C[N+](C)(C)C)c(OC)c1 (stereo not given) | > 100 | > 100 | – | 68.8 | 42.1 | – | – | – | – | – | – | > 100 | – | – | > 100 | –
CCOC(=O)/C=C(\C)c1ccc(OC)cc1 | – | – | – | – | – | – | > 100 | – | > 100 | > 100 | > 100 | – | > 100 | > 100 | – | –
CC(C)C[P+](c1ccccc1)(c1ccccc1)c1ccccc1 | 25 | > 100 | > 100 | > 100 | > 100 | – | – | – | – | – | – | > 100 | – | – | > 100 | –
C=C1C(=O)OC2C1CC(O)/C(C)=C\CCC1(C)OC21 (stereo not given) | 89.6 | 43.2 | > 100 | > 100 | 35.4 | – | – | – | – | – | – | 86.1 | – | – | 67.9 | –
Cc1nc2ccccc2c(=O)[nH]1 | – | – | – | > 100 | – | > 100 | > 100 | > 100 | – | > 100 | > 100 | – | > 100 | > 100 | – | –
N#Cc1c(NC(=S)NC(=O)c2ccccc2)nc2c(c1-c1ccccc1)CCCC2 | > 100 | 96.1 | > 100 | – | > 100 | – | – | – | – | – | – | > 100 | – | – | 35 | –
CC(C)(Br)C1(O)CCCN1C(=O)c1ccccc1 (stereo not given) | – | – | – | – | – | > 100 | > 100 | > 100 | > 100 | > 100 | – | – | > 100 | > 100 | – | –
CCC(C)C(=O)c1c(O)c(C/C=C(\C)CCC=C(C)C)c(O)c2c(C(O)CC)cc(=O)oc12 (stereo not given) | – | – | – | – | – | 6.51 | 2.99 | 14.2 | 8.29 | 2.68 | 4.53 | – | 11.3 | – | – | –
COc1ccc(NC(=O)/C(=C/c2ccc(N(CCC#N)CCC#N)cc2)NC(=O)c2cc([N+](=O)[O-])ccc2Cl)cc1 | – | – | – | – | – | > 100 | > 100 | > 100 | > 100 | > 100 | > 100 | – | > 100 | > 100 | – | –
NCc1ccccc1C1CSCSC1 | – | – | – | – | – | > 100 | > 100 | – | > 100 | – | > 100 | – | > 100 | – | – | –
O=[N+]([O-])c1cn[n+]([O-])c2ccccc12 | 27.8 | 18.8 | 18 | 12.3 | 27.3 | – | – | – | – | – | – | 50.1 | – | – | 29.1 | –

Source: PubChem BioAssay (NCI)
